The source of these data is the RepoRT retention time repository (doi:10.1016/j.foodchem.2021.129757).

One data set can be described thus: RP, Agilent ZORBAX RRHD Eclipse Plus C18, 50 × 2.1 mm, 1.8 µm, 30 °C, 0.4 mL/min, estimated dead time 0.28 min; A: water + 0.1% formic acid, pH 3; B: acetonitrile + 0.1% formic acid, pH 3; gradient (min/%B) 0/1 5/10 8/25 9.1/99 10/99 12/1. To be noted: stereoisomer not certain.
As to `O=C(C=Cc1ccc(O)c(O)c1)OC1CC(O)(C(=O)O)CC(O)C1O` (stereo not drawn) [Chlorogenic acid], the LC retention time was 5.31 min.

For the molecule `O=C(O)c1ccc(O)cc1` [4-Hydroxybenzoic acid], the LC retention time was 3.9 min.

In the case of `O=c1c(O)c(-c2ccc(O)c(O)c2)oc2cc(O)cc(O)c12` [Quercetin], the LC retention time is 9.04 min.

As to `O=C1c2c(O)cc(O)cc2OC(c2ccc(O)c(O)c2)C1O` (stereo not drawn) [Taxifolin], the LC retention time was 7.85 min.

The nature of another data set: RP, Phenomenex Luna Omega Polar C18, 100 × 2.1 mm, 1.6 µm, 40 °C, 0.5 mL/min, estimated dead time 0.44 min; A: water + 0.5% formic acid; B: acetonitrile + 0.5% formic acid; gradient (min/%B) 0/5 3/50 3.1/100 5/100 5.1/5 7/5. The settings on record: stereoisomer not certain.
On to `O=C(C=Cc1ccc(O)c(O)c1)OC1CC(O)(C(=O)O)CC(O)C1O` (stereo not drawn) [Chlorogenic acid], for which the LC retention time is 1.81 min.

Another data set is described as follows: RP, Phenomenex Kinetex EVO C18, 100 × 2.1 mm, 2.6 µm, 40 °C, 0.4 mL/min, estimated dead time 0.55 min; A: water + 0.2% formic acid; B: acetonitrile + 0.2% formic acid; gradient (min/%B) 0/5 0.5/5 7/95 8/95 8.5/5 12/5. To be noted: stereoisomer not certain.
Regarding `O=C(O)c1ccc(O)cc1` [4-Hydroxybenzoic acid], the LC retention time was 2.18 min.

The nature of a further data set: RP, Agilent ZORBAX RRHD Eclipse Plus C18, 50 × 2.1 mm, 1.8 µm, 30 °C, 0.4 mL/min, estimated dead time 0.28 min; A: water + 0.1% formic acid, pH 3; B: acetonitrile + 0.1% formic acid, pH 3; gradient (min/%B) 0/1 5/10 8/25 9.1/99 10/99 12/99. The settings on record: stereoisomer not certain.
For the molecule `O=C(C=Cc1ccc(O)c(O)c1)OC1CC(O)(C(=O)O)CC(O)C1O` (stereo not drawn) [Chlorogenic acid], the LC retention time is 4.49 min.

With `O=C(O)c1ccc(O)cc1` [4-Hydroxybenzoic acid], the LC retention time is 2.55 min.

For the molecule `O=c1c(O)c(-c2ccc(O)c(O)c2)oc2cc(O)cc(O)c12` [Quercetin], the LC retention time was 9.19 min.

Regarding `O=C1c2c(O)cc(O)cc2OC(c2ccc(O)c(O)c2)C1O` (stereo not drawn) [Taxifolin], the LC retention time is 8.66 min.

Another data set in a line: RP, Waters ACQUITY UPLC BEH Shield RP18, 100 × 2.1 mm, 1.7 µm, 30 °C, 0.6 mL/min, estimated dead time 0.37 min; A: water + 0.1% formic acid, pH 3; B: acetonitrile + 0.1% formic acid, pH 3; gradient (min/%B) 0/0 2/0 7/10 22/95 22.1/0 26/0. The settings on record: stereoisomer not certain.
As for `O=c1oc2c(O)c(O)cc3c(=O)oc4c(O)c(O)cc1c4c23` [Ellagic acid], the LC retention time was 13.1 min.

In the case of `O=C(C=Cc1ccc(O)c(O)c1)OC1CC(O)(C(=O)O)CC(O)C1O` (stereo not drawn) [Chlorogenic acid], the LC retention time was 11 min.

The nature of a further data set: RP, Waters ACQUITY UPLC BEH Shield RP18, 150 × 2.1 mm, 1.7 µm, 40 °C, 0.4 mL/min, estimated dead time 0.83 min; A: water + 0.1% formic acid, pH 3; B: acetonitrile + 0.1% formic acid, pH 3; gradient (min/%B) 0/0 30/50 31/100 37/100 37.1/0. The settings on record: stereoisomer not certain.
Regarding `O=c1cc(-c2ccc(O)cc2)oc2cc(O)cc(O)c12` [Apigenin], the LC retention time is 23.6 min.

For `O=C(C=Cc1ccc(O)c(O)c1)OC1CC(O)(C(=O)O)CC(O)C1O` (stereo not drawn) [Chlorogenic acid], the LC retention time is 7.05 min.

In the case of `O=c1c(O)c(-c2ccc(O)c(O)c2)oc2cc(O)cc(O)c12` [Quercetin], the LC retention time was 20.4 min.

Turning to `CC1OC(OCC2OC(Oc3c(-c4ccc(O)c(O)c4)oc4cc(O)cc(O)c4c3=O)C(O)C(O)C2O)C(O)C(O)C1O` (stereo not drawn) [Rutin], the LC retention time was 12.6 min.

As to `O=C1c2c(O)cc(O)cc2OC(c2ccc(O)c(O)c2)C1O` (stereo not drawn) [Taxifolin], the LC retention time was 12.4 min.

On to `COc1ccc(C2CC(=O)c3c(O)cc(OC4OC(COC5OC(C)C(O)C(O)C5O)C(O)C(O)C4O)cc3O2)cc1O` (stereo not drawn) [Hesperidin], for which the LC retention time is 13 min.

Another data set in a line: RP, Agilent InfinityLab Poroshell 120 EC-C18, 100 × 3 mm, 2.7 µm, 25 °C, 0.4 mL/min, estimated dead time 1.1 min; A: water + 0.1% formic acid, pH 3; B: acetonitrile + 0.1% formic acid, pH 3; gradient (min/%B) 0/5 10/25 20/40 24/90 25/90 26/5 30/5. The settings on record: stereoisomer not certain.
In the case of `O=c1oc2c(O)c(O)cc3c(=O)oc4c(O)c(O)cc1c4c23` [Ellagic acid], the LC retention time is 8.97 min.

For the molecule `O=c1cc(-c2ccc(O)cc2)oc2cc(O)cc(O)c12` [Apigenin], the LC retention time was 16.3 min.

For `O=C(C=Cc1ccc(O)c(O)c1)OC1CC(O)(C(=O)O)CC(O)C1O` (stereo not drawn) [Chlorogenic acid], the LC retention time was 5.48 min.

Take `O=c1c(O)c(-c2ccc(O)c(O)c2)oc2cc(O)cc(O)c12` [Quercetin]: the LC retention time was 14.1 min.

Consider `CC1OC(OCC2OC(Oc3c(-c4ccc(O)c(O)c4)oc4cc(O)cc(O)c4c3=O)C(O)C(O)C2O)C(O)C(O)C1O` (stereo not drawn) [Rutin], for which the LC retention time was 8.79 min.

For the molecule `COc1ccc(C2CC(=O)c3c(O)cc(OC4OC(COC5OC(C)C(O)C(O)C5O)C(O)C(O)C4O)cc3O2)cc1O` (stereo not drawn) [Hesperidin], the LC retention time is 10.8 min.

The nature of a further data set: RP, 150 × 2.1 mm, 2.6 µm, 40 °C, 0.35 mL/min, estimated dead time 0.94 min; A: water + 0.1% formic acid, pH 3; B: acetonitrile + 0.1% formic acid, pH 3; gradient (min/%B) 0/0 1/0 12.5/100 14/100 14.2/0 15/0. The settings on record: stereoisomer not certain.
For the molecule `O=C1c2c(O)cc(O)cc2OC(c2ccc(O)c(O)c2)C1O` (stereo not drawn) [Taxifolin], the LC retention time was 5.84 min.

On to `COc1ccc(C2CC(=O)c3c(O)cc(OC4OC(COC5OC(C)C(O)C(O)C5O)C(O)C(O)C4O)cc3O2)cc1O` (stereo not drawn) [Hesperidin], for which the LC retention time was 6 min.

A further data set can be described thus: RP, Waters ACQUITY UPLC HSS T3, 100 × 2.1 mm, 50 °C; A: water + 0.1% formic acid, pH 3; B: 30% methanol + 70% acetonitrile + 0.1% formic acid, pH 3; gradient (min/%B) 0/5 1/8 2/15 3/40 4/70 4.5/100 5/100 6.4/100 6.6/5 6.8/5 7/5. The settings on record: stereoisomer not certain.
Turning to `O=C(O)c1ccc(O)cc1` [4-Hydroxybenzoic acid], the LC retention time was determined as 2.8 min.

In the case of `O=c1c(O)c(-c2ccc(O)c(O)c2)oc2cc(O)cc(O)c12` [Quercetin], the LC retention time stood at 3.74 min.

Another data set is described as follows: RP, Phenomenex Luna Omega Polar C18, 100 × 2.1 mm, 1.6 µm, 40 °C, 0.5 mL/min, estimated dead time 0.44 min; A: water + 0.1% formic acid + 10 mM ammonium formate; B: acetonitrile; gradient (min/%B) 0/5 8/20 10/100 12/100 12.1/5 14/5. To be noted: stereoisomer not certain.
With `O=C(C=Cc1ccc(O)c(O)c1)OC1CC(O)(C(=O)O)CC(O)C1O` (stereo not drawn) [Chlorogenic acid], the LC retention time is 3.49 min.

The next data set is described as follows: Other, Phenomenex Kinetex PFP, 100 × 4.6 mm, 5 µm, 45 °C, 0.6 mL/min, estimated dead time 1.8 min; A: water + 0.1% trifluoroacetic acid, pH 2; B: methanol; gradient (min/%B) 0/40 20/72 21/40. To be noted: stereoisomer not certain.
`COc1cc(-c2[o+]c3cc(O)cc(O)c3cc2O)cc(OC)c1O` [Malvidin]: the LC retention time is 14.3 min.

As to `O=c1cc2oc(-c3cc(O)c(O)c(O)c3)c(O)cc-2c(O)c1` [Delphinidin], the LC retention time is 8.44 min.

`O=C(O)c1ccc(O)c(O)c1O` [2,3,4-Trihydroxybenzoic acid]: the LC retention time was 4.34 min.

For `O=C(C=Cc1ccc(O)c(O)c1)OC1CC(O)(C(=O)O)CC(O)C1O` (stereo not drawn) [Chlorogenic acid], the LC retention time was 4.03 min.

In the case of `O=C(O)c1ccc(O)cc1` [4-Hydroxybenzoic acid], the LC retention time is 5.08 min.

For the molecule `O=c1c(O)c(-c2ccc(O)c(O)c2)oc2cc(O)cc(O)c12` [Quercetin], the LC retention time was 16.6 min.

Turning to `CC1OC(OCC2OC(Oc3c(-c4ccc(O)c(O)c4)oc4cc(O)cc(O)c4c3=O)C(O)C(O)C2O)C(O)C(O)C1O` (stereo not drawn) [Rutin], the LC retention time is 8.63 min.

With `Oc1ccc(-c2[o+]c3cc(O)cc(O)c3cc2O)cc1` [Pelargonidin], the LC retention time is 12.9 min.

`O=C1c2c(O)cc(O)cc2OC(c2ccc(O)c(O)c2)C1O` (stereo not drawn) [Taxifolin]: the LC retention time is 7.73 min.

Turning to `COc1ccc(C2CC(=O)c3c(O)cc(OC4OC(COC5OC(C)C(O)C(O)C5O)C(O)C(O)C4O)cc3O2)cc1O` (stereo not drawn) [Hesperidin], the LC retention time was 9.9 min.

A short description of another data set: RP, Waters ACQUITY UPLC HSS T3, 100 × 2.1 mm, 1.8 µm, 30 °C, 0.4 mL/min, estimated dead time 0.55 min; A: water + 0.1% formic acid, pH 3; B: acetonitrile + 0.1% formic acid, pH 3; gradient (min/%B) 0/0 2/0 15/100 22/100 22.1/0 26/0. To be noted: stereoisomer not certain.
For the molecule `O=C(C=Cc1ccc(O)c(O)c1)OC1CC(O)(C(=O)O)CC(O)C1O` (stereo not drawn) [Chlorogenic acid], the LC retention time was 8.02 min.

Turning to `O=c1c(O)c(-c2ccc(O)c(O)c2)oc2cc(O)cc(O)c12` [Quercetin], the LC retention time was 11 min.

In the case of `O=C1c2c(O)cc(O)cc2OC(c2ccc(O)c(O)c2)C1O` (stereo not drawn) [Taxifolin], the LC retention time is 9.67 min.

Turning to `COc1ccc(C2CC(=O)c3c(O)cc(OC4OC(COC5OC(C)C(O)C(O)C5O)C(O)C(O)C4O)cc3O2)cc1O` (stereo not drawn) [Hesperidin], the LC retention time was 9.62 min.
